Where a name gives a salt, the structure may show the parent alone. Read-outs that look alike come from different tables or passages of the source.
Legend:
[1] = Pharmacokinetics of PEGylated protease inhibitor prodrugs in rats; type: in vivo, male Sprague-Dawley rats; set-up: AUCall / AUC: concentration or dose not given beside the values; settings: male, Sprague-Dawley, rat, prodrug in plasma; for AUC / Cmax: mean ± SD; for Cmax: read-out: Cmax; for half-life: read-out: t½(z) (converted)
Procedure: (§1) Pharmacokinetic analysis of protease inhibitors described herein was conducted. To evaluate the pharmacokinetics of PEGylated protease inhibitor conjugates with releasable lipophilic attachments, test compounds were administered to male Sprague-Dawley rats.
(§2) At various times following test article administration, serial blood samples were collected from indwelling jugular vein catheters and transferred to micro-tubes containing 7.5 μL of 20% w/v K2EDTA as an anticoagulant. Following processing of the blood samples to plasma (10 minutes at 10000 rpm, Centrifuge Model: Kubota 3500), plasma concentrations of the test article or corresponding PEGylated molecule released from the test article was measured using LC-MS/MS methods. Pharmacokinetic parameters were estimated using noncompartmental methods.
Table 3 presents a summary of pharmacokinetic parameters of PEGylated protease inhibitor prodrugs, wherein Cmax is the maximum (peak) concentration, AUCall represents the area under the concentration-time curve from zero to time of last concentration value, T½ is half life, and MRTlast is the mean residence time to last observable concentration

[2] = Pharmacokinetics of released PEGylated protease inhibitor following P.O. administration of prodrugs in rats; type: in vivo, male Sprague-Dawley rats; set-up: AUCall Mean: concentration or dose not given beside the values; C24 Mean: unit not given here; settings: rats (n = 4-5); for C24 Mean: concentration at 24 hours
Procedure: as §1, §2

[3] = mPEG6-atazanavir in plasma after PO administration of mPEG6-ATV or of the listed prodrug
[4] = mPEG5-atazanavir in plasma after PO administration of mPEG5-ATV or of the listed prodrug
[5] = mPEG3-atazanavir in plasma after PO administration of mPEG3-ATV or of the listed prodrug

Compound | AUCall Mean [2, 3] | Cmax Mean [2, 3] | MRT last Mean [2, 3] | Tmax Median [2, 3] | AUCall Mean [2, 4] | Cmax Mean [2, 4] | MRT last Mean [2, 4] | Tmax Median [2, 4] | further results
COCCOCCOCCOCCOCCOC(=O)N[C@H](C(=O)N[C@@H](Cc1ccccc1)[C@H](CN(Cc1ccc(-c2ccccn2)cc1)NC(=O)[C@@H](NC(=O)OC)C(C)(C)C)OC(=O)CNC(=O)[C@@H](N)C(C)C)C(C)(C)C [Val-Gly-mPEG5-Atazanavir HCl, Val-Gly-mPEG5-Atazanavir Hydrochloride] |  |  |  |  |  |  |  |  | MRT last ([1]; in vivo): 0.779 ± 0.513 h; AUC ([1]; in vivo): 14.9 ± 18.7 ng·h/mL; Cmax ([1]; in vivo): 33.7 ± 53.9 ng/mL; half-life ([1]; in vivo): 2.95 h
COCCOCCOCCOCCOCCOC(=O)N[C@@H](C(=O)N[C@@H](Cc1ccccc1)[C@H](CN(Cc1ccc(-c2ccccn2)cc1)NC(=O)[C@H](NC(=O)OC)C(C)(C)C)OC(=O)CCCC(=O)O[C@@H]1[C@@H](O)[C@@H](O)O[C@@H]1[C@H](O)CO)C(C)(C)C [(5R,10S,11S,14R)-11-benzyl-5,14-di-tert-butyl-3,6,13,16-tetraoxo-8-(4-(pyridin-2-yl)benzyl)-2,17,20,23,26,29,32-heptaoxa-4,7,8,12,15-pentaazatritriacontan-10-yl (2R,3R,4R,5S)-2-((R)-1,2-dihydroxyethyl)-4,5-dihydroxytetrahydrofuran-3-yl glutarate] |  |  |  |  |  |  |  |  | MRT last ([1]; oral): 11.4 ± 7.37 h; concentration at 24 hr ([1]; oral, 24 hr, read-out: Cmin(24 hr)): 2.64 ± 2.87 ng/mL; AUC ([1]; oral): 78.5 ± 78.2 ng·h/mL; Cmax ([1]; oral): 13.1 ± 12.4 ng/mL
COCCOCCOCCOCCOCCOC(=O)N[C@H](C(=O)N[C@@H](Cc1ccccc1)[C@H](CN(Cc1ccc(-c2ccccn2)cc1)NC(=O)[C@@H](NC(=O)OC)C(C)(C)C)OC(=O)CNC(=O)[C@@H](N)Cc1ccccc1)C(C)(C)C [Phe-Gly-mPEG5-Atazanavir HCl, Phe-Gly-mPEG5-Atazanavir Hydrochloride] |  |  |  |  |  |  |  |  | MRT last ([1]; in vivo): 0.357 ± 0.129 h; AUC ([1]; in vivo): 0.341 ± 0.313 ng·h/mL; Cmax ([1]; in vivo): 0.895 ± 0.808 ng/mL
COCCOCCOCCOCCOCCOC(=O)N[C@H](C(=O)N[C@@H](Cc1ccccc1)[C@H](CN(Cc1ccc(-c2ccccn2)cc1)NC(=O)[C@@H](NC(=O)OC)C(C)(C)C)OC(=O)[C@@H](N)CC(C)C)C(C)(C)C [mPEG5-Atazanavir-L-Leucine] |  |  |  |  |  |  |  |  | MRT last ([1]; oral): 1.71 ± 0.327 h; AUC ([1]; oral): 487 ± 348 ng·h/mL; Cmax ([1]; oral): 191 ± 85.6 ng/mL; half-life ([1]; oral): 2.37 ± 2.19 h
COCCOCCOCCOCCOCCOC(=O)NC(C(=O)NC(Cc1ccccc1)C(CN(Cc1ccc(-c2ccccn2)cc1)NC(=O)C(NC(=O)OC)C(C)(C)C)OC(=O)CNC(=O)C(N)Cc1ccccc1)C(C)(C)C.Cl (stereo not drawn) [Phe-Gly-mPEG5-Atazanavir HCl, Phe-Gly-mPEG5-Atazanavir Hydrochloride] |  |  |  |  | 33.7 ng·h/mL | 3.10 ng/mL | 12.0 h | 12.0 h | C24 Mean [2, 4]: 0.169
CCOCOC(CN(Cc1ccc(-c2ccccn2)cc1)NC(=O)C(NC(=O)OC)C(C)(C)C)C(Cc1ccccc1)NC(=O)C(NC(=O)OCCOCCOCCOCCOCCOCCOC)C(C)(C)C (stereo not shown) [Methyl ethyl ether mPEG6-ATV, mPEG6-Atazanavir Methyl Ethyl Ether] | 202 ng·h/mL | 38.3 ng/mL | 10.1 h | 2.00 h |  |  |  |  | C24 Mean [2, 3]: 0.00
COCCOCCOCCOCCOCCOC(=O)NC(C(=O)NC(Cc1ccccc1)C(CN(Cc1ccc(-c2ccccn2)cc1)NC(=O)C(NC(=O)OC)C(C)(C)C)OC(=O)CNC(=O)C(N)CC(C)C)C(C)(C)C.Cl (stereo not drawn) [Leu-Gly-mPEG5-Atazanavir HCl, Leu-Gly-mPEG5-Atazanavir Hydrochloride] |  |  |  |  | 344 ng·h/mL | 19.5 ng/mL | 11.3 h | 12.0 h | C24 Mean [2, 4]: 18.1
CCOC(CC)OC(CN(Cc1ccc(-c2ccccn2)cc1)NC(=O)C(NC(=O)OC)C(C)(C)C)C(Cc1ccccc1)NC(=O)C(NC(=O)OCCOCCOCCOCCOCCOC)C(C)(C)C (mixture of isomers) [ATV-1-Ethoxy propoxy-mPEG5, atazanavir-1-ethoxypropoxy-mPEG5] |  |  |  |  | 235 ng·h/mL | 55.3 ng/mL | 3.53 h | 1.00 h | 
CCC(=O)OC(CN(Cc1ccc(-c2ccccn2)cc1)NC(=O)C(NC(=O)OC)C(C)(C)C)C(Cc1ccccc1)NC(=O)C(NC(=O)OCCOCCOCCOC)C(C)(C)C (stereo not shown) [C2H5CO-mPEG3-ATV, mPEG3-Atazanavir Propionate] |  |  |  |  |  |  |  |  | AUCall Mean [2, 5]: 59.6 ng·h/mL; Cmax Mean [2, 5]: 17.8 ng/mL; MRT last Mean [2, 5]: 2.44 h; Tmax* Median [2, 5]: 0.500 h

Continued, in another order:

AUCall Mean [2, 3] | Cmax Mean [2, 3] | MRT last Mean [2, 3] | Tmax Median [2, 3] | AUCall Mean [2, 4] | Cmax Mean [2, 4] | MRT last Mean [2, 4] | Tmax Median [2, 4] | Compound | further results
418 ng·h/mL | 37.2 ng/mL | 13.8 h | 1.50 h |  |  |  |  | COCCOCCOCCOCCOCCOCCOC(=O)N[C@H](C(=O)N[C@@H](Cc1ccccc1)[C@H](CN(Cc1ccc(-c2ccccn2)cc1)NC(=O)[C@@H](NC(=O)OC)C(C)(C)C)OC(=O)[C@H](Cc1ccccc1)NC(=O)[C@@H](N)CC(C)C)C(C)(C)C.Cl [Leu-Phe-mPEG6-ATV, Leu-Phe-mPEG6-Atazanavir Hydrochloride] | 
40.6 ng·h/mL | 2.07 ng/mL | 13.8 h | 4.00 h |  |  |  |  | mPEG6-atazanavir-ethoxy-CME-Leu-Leu [mPEG6-ATV-Ethoxy-CM-Leu-Leu] | 
36.5 ng·h/mL | 13.8 ng/mL | 1.14 h | 0.750 h |  |  |  |  | CCCCC(=O)OC(CN(Cc1ccc(-c2ccccn2)cc1)NC(=O)C(NC(=O)OC)C(C)(C)C)C(Cc1ccccc1)NC(=O)C(NC(=O)OCCOCCOCCOCCOCCOCCOC)C(C)(C)C (stereo not shown) [C4H9CO-mPEG6-ATV, C4H9CO-mPEG6-atazanavir] | 
 |  |  |  | 50.3 ng·h/mL | 1.86 ng/mL | 26.7 h | 24.0 h | mPEG5-atazanavir-ethoxy-CME-Leu-Leu [mPEG5ATV-Ethoxy-CM-Leu-Leu] | 
78.1 ng·h/mL | 21.4 ng/mL | 5.01 h | 0.500 h |  |  |  |  | CCCCCC(=O)O[C@@H](CN(Cc1ccc(-c2ccccn2)cc1)NC(=O)[C@@H](NC(=O)OC)C(C)(C)C)[C@H](Cc1ccccc1)NC(=O)[C@@H](NC(=O)OCCOCCOCCOCCOCCOCCOC)C(C)(C)C [C5H11CO-mPEG6-ATV, C5H11CO-mPEG6-atazanavir] | 
 |  |  |  | 32.7 ng·h/mL | 3.74 ng/mL | 4.92 h | 2.00 h | COCCOCCOCCOCCOCCOC(=O)NC(C(=O)NC(Cc1ccccc1)C(CN(Cc1ccc(-c2ccccn2)cc1)NC(=O)C(NC(=O)OC)C(C)(C)C)OCOCCOC)C(C)(C)C (stereo not shown) [mPEG5-ATV-Methyl ethyl methyl ether, mPEG5-Atazanavir Methyl Ethyl Methyl Ether] | 
294 ng·h/mL | 13.7 ng/mL | 27.2 h | 30.0 h |  |  |  |  | COCCOCCOCCOCCOCCOCCOC(=O)N[C@H](C(=O)N[C@@H](Cc1ccccc1)[C@H](CN(Cc1ccc(-c2ccccn2)cc1)NC(=O)[C@@H](NC(=O)OC)C(C)(C)C)OC(=O)CNC(=O)[C@@H](N)CC(C)C)C(C)(C)C.Cl [Leu-Gly-mPEG6-ATV, Leu-Gly-mPEG6-Atazanavir Hydrochloride] | 
 |  |  |  | 23.7 ng·h/mL | 7.38 ng/mL | 2.42 h | 0.500 h | CCCCCC(=O)O[C@@H](CN(Cc1ccc(-c2ccccn2)cc1)NC(=O)[C@@H](NC(=O)OC)C(C)(C)C)[C@H](Cc1ccccc1)NC(=O)[C@@H](NC(=O)OCCOCCOCCOCCOCCOC)C(C)(C)C [C5H11CO-mPE5-ATV, C5H11CO-mPEG5-atazanavir] | 
